± gives the expanded uncertainty stated by the source.
Columns and labels:
[1] = Liquid, Closed cell (Static) method
[2] = refractive index (Na D-line) (dimensionless); conditions: 298.15 K; 101.33 kPa; Liquid; Standard Abbe refractometry

| Compound | vapor or sublimation pressure ([1]; 336.67 K) [kPa] | vapor or sublimation pressure ([1]; 350.33 K) [kPa] | vapor or sublimation pressure ([1]; 350.35 K) [kPa] | vapor or sublimation pressure ([1]; 350.41 K) [kPa] | refractive index [2] | vapor or sublimation pressure ([1]; 350.4 K) [kPa] | vapor or sublimation pressure ([1]; 350.36 K) [kPa] |
| --- | --- | --- | --- | --- | --- | --- | --- |
| CSC [2-thiapropane] | 232.9 ± 1 | 340.4 ± 1.4 | 340.3 ± 0.9 | 340.4 ± 0.9 | 1.43127 ± 0.00031 |  |  |
| COC [dimethyl ether] | 1576.5 ± 6.2 |  |  |  |  |  |  |
| CCO [ethanol] |  |  |  |  | 1.35959 ± 0.00037 | 96.5 ± 0.9 |  |
| COC(C)=O [methyl ethanoate] |  |  |  |  | 1.3589 ± 0.00036 |  | 196 ± 1 |

From the NIST ThermoML archive (doi:10.1016/j.fluid.2013.06.044)
